Results as given in the NIST ThermoML archive (doi:10.1016/j.jct.2016.10.023).
Numbers after ± are expanded uncertainties.

Experiment: xn = mol fraction of the nth substance listed
Details: Constant-volume piezometry

CCCCC [pentane] + CCCO
Details | mass density [kg/m3]
493.15 K, 18923 kPa, Fluid (supercritical or subcritical phases), x1 = 0.8 | 467.52 ± 2.4
493.15 K, 23193 kPa, Fluid (supercritical or subcritical phases), x1 = 0.5 | 520.3 ± 2.6
493.15 K, 26040 kPa, Liquid, x1 = 0.2 | 582.45 ± 1.2
493.15 K, 27225 kPa, Fluid (supercritical or subcritical phases), x1 = 0.8 | 497.01 ± 2.5
493.15 K, 32486 kPa, Fluid (supercritical or subcritical phases), x1 = 0.5 | 549.21 ± 2.8
493.15 K, 32782 kPa, Liquid, x1 = 0.2 | 596.07 ± 1.2
493.15 K, 37919 kPa, Fluid (supercritical or subcritical phases), x1 = 0.8 | 521.58 ± 2.6
493.15 K, 43289 kPa, Liquid, x1 = 0.2 | 615.49 ± 1.3
494.15 K, 4206 kPa, Gas, x1 = 0.5 | 154.71 ± 0.71
494.15 K, 4318 kPa, Gas, x1 = 0.5 | 183.11 ± 0.78
494.15 K, 4366 kPa, Fluid (supercritical or subcritical phases), x1 = 0.5 | 251.05 ± 1.3
498.15 K, 4515 kPa, Fluid (supercritical or subcritical phases), x1 = 0.5 | 183.07 ± 1.1
498.15 K, 4637 kPa, Fluid (supercritical or subcritical phases), x1 = 0.5 | 251 ± 1.5
498.15 K, 4641 kPa, Fluid (supercritical or subcritical phases), x1 = 0.5 | 260.06 ± 1.6
503.15 K, 912 kPa, Gas, x1 = 0.5 | 15.53 ± 0.05
503.15 K, 1255 kPa, Gas, x1 = 0.8 | 22.55 ± 0.07
503.15 K, 1464 kPa, Gas, x1 = 0.2 | 24.95 ± 0.08
503.15 K, 1642 kPa, Gas, x1 = 0.5 | 30.01 ± 0.09
503.15 K, 1866 kPa, Gas, x1 = 0.8 | 36.72 ± 0.11
503.15 K, 2163 kPa, Gas, x1 = 0.5 | 40.52 ± 0.13
503.15 K, 2523 kPa, Gas, x1 = 0.5 | 51.14 ± 0.16
503.15 K, 2701 kPa, Gas, x1 = 0.8 | 58.47 ± 0.18
503.15 K, 2838 kPa, Gas, x1 = 0.2 | 53.06 ± 0.17
503.15 K, 3137 kPa, Gas, x1 = 0.5 | 67.58 ± 0.21
503.15 K, 3169 kPa, Gas, x1 = 0.8 | 73.86 ± 0.23
503.15 K, 3305 kPa, Gas, x1 = 0.5 | 72.67 ± 0.23
503.15 K, 3338 kPa, Gas, x1 = 0.9 | 83.46 ± 0.26
503.15 K, 3585 kPa, Gas, x1 = 0.2 | 91.5 ± 0.29
503.15 K, 3654 kPa, Gas, x1 = 0.5 | 88.99 ± 0.28
503.15 K, 3800 kPa, Gas, x1 = 0.5 | 95.94 ± 0.31
503.15 K, 3948 kPa, Fluid (supercritical or subcritical phases), x1 = 0.8 | 106.5 ± 0.54
503.15 K, 4106 kPa, Fluid (supercritical or subcritical phases), x1 = 0.9 | 123.46 ± 0.63
503.15 K, 4150 kPa, Liquid, x1 = 0.2 | 419.16 ± 0.86
503.15 K, 4247 kPa, Fluid (supercritical or subcritical phases), x1 = 0.5 | 122.01 ± 0.68
503.15 K, 4264 kPa, Fluid (supercritical or subcritical phases), x1 = 0.9 | 134.25 ± 0.69
503.15 K, 4466 kPa, Fluid (supercritical or subcritical phases), x1 = 0.5 | 144.25 ± 0.77
503.15 K, 4546 kPa, Fluid (supercritical or subcritical phases), x1 = 0.8 | 140.44 ± 0.76
503.15 K, 4573 kPa, Fluid (supercritical or subcritical phases), x1 = 0.5 | 154.64 ± 0.82
503.15 K, 4621 kPa, Fluid (supercritical or subcritical phases), x1 = 0.9 | 164.11 ± 0.85
503.15 K, 4653 kPa, Fluid (supercritical or subcritical phases), x1 = 0.5 | 165.3 ± 0.89
503.15 K, 4689 kPa, Fluid (supercritical or subcritical phases), x1 = 0.8 | 156.19 ± 0.83
503.15 K, 4764 kPa, Fluid (supercritical or subcritical phases), x1 = 0.5 | 183.03 ± 0.99
503.15 K, 4818 kPa, Fluid (supercritical or subcritical phases), x1 = 0.8 | 169.95 ± 0.91
503.15 K, 4821 kPa, Fluid (supercritical or subcritical phases), x1 = 0.5 | 200.59 ± 1.1
503.15 K, 4859 kPa, Fluid (supercritical or subcritical phases), x1 = 0.9 | 189.64 ± 0.99
503.15 K, 4864 kPa, Fluid (supercritical or subcritical phases), x1 = 0.5 | 210.43 ± 1.1
503.15 K, 4865 kPa, Fluid (supercritical or subcritical phases), x1 = 0.8 | 176.2 ± 0.93
503.15 K, 4895 kPa, Fluid (supercritical or subcritical phases), x1 = 0.5 | 224.27 ± 1.2
503.15 K, 4924 kPa, Fluid (supercritical or subcritical phases), x1 = 0.8 | 181 ± 0.96
503.15 K, 4956 kPa, Fluid (supercritical or subcritical phases), x1 = 0.5 | 241.74 ± 1.3
503.15 K, 4976 kPa, Fluid (supercritical or subcritical phases), x1 = 0.5 | 250.94 ± 1.3
503.15 K, 4988 kPa, Fluid (supercritical or subcritical phases), x1 = 0.9 | 202.57 ± 1.1
503.15 K, 4993 kPa, Fluid (supercritical or subcritical phases), x1 = 0.5 | 260 ± 1.4
503.15 K, 5013 kPa, Fluid (supercritical or subcritical phases), x1 = 0.8 | 193.35 ± 1
503.15 K, 5023 kPa, Fluid (supercritical or subcritical phases), x1 = 0.5 | 270.83 ± 1.4
503.15 K, 5099 kPa, Fluid (supercritical or subcritical phases), x1 = 0.5 | 282.66 ± 1.5
503.15 K, 5158 kPa, Fluid (supercritical or subcritical phases), x1 = 0.9 | 220.9 ± 1.2
503.15 K, 5187 kPa, Fluid (supercritical or subcritical phases), x1 = 0.8 | 214.06 ± 1.1
503.15 K, 5234 kPa, Fluid (supercritical or subcritical phases), x1 = 0.8 | 219.83 ± 1.2
503.15 K, 5246 kPa, Fluid (supercritical or subcritical phases), x1 = 0.5 | 298.97 ± 1.6
503.15 K, 5287 kPa, Fluid (supercritical or subcritical phases), x1 = 0.9 | 233.29 ± 1.2
503.15 K, 5320 kPa, Fluid (supercritical or subcritical phases), x1 = 0.9 | 236.76 ± 1.2
503.15 K, 5356 kPa, Fluid (supercritical or subcritical phases), x1 = 0.9 | 241.17 ± 1.2
503.15 K, 5385 kPa, Fluid (supercritical or subcritical phases), x1 = 0.9 | 244.48 ± 1.3
503.15 K, 5390 kPa, Fluid (supercritical or subcritical phases), x1 = 0.8 | 234.94 ± 1.2
503.15 K, 5482 kPa, Fluid (supercritical or subcritical phases), x1 = 0.8 | 245.58 ± 1.2
503.15 K, 5510 kPa, Fluid (supercritical or subcritical phases), x1 = 0.5 | 320.32 ± 1.6
503.15 K, 5579 kPa, Fluid (supercritical or subcritical phases), x1 = 0.5 | 325.6 ± 1.7
503.15 K, 5611 kPa, Fluid (supercritical or subcritical phases), x1 = 0.8 | 258.82 ± 1.4
503.15 K, 5786 kPa, Fluid (supercritical or subcritical phases), x1 = 0.9 | 282.29 ± 1.4
503.15 K, 5797 kPa, Fluid (supercritical or subcritical phases), x1 = 0.8 | 272.8 ± 1.4
503.15 K, 5864 kPa, Fluid (supercritical or subcritical phases), x1 = 0.5 | 344.91 ± 1.7

Liquid
Details | mass density [kg/m3]
493.15 K, x1 = 0.5 | 260.13 ± 1.6
502.95 K, x1 = 0.2 | 419.16 ± 2.5
